Experimental data reported in patent US20120064556A1, “LIPOPROTEIN LIPASE ASSAY” (THE RESEARCH FOUNDATION OF STATE UNIVERSTIY OF NEW YORK, priority 2010, published 2012).
Values belong to the molecule of their own block, whether it stands above or below them.

How the values were obtained:
[1] = solubility and shelf life of substrate in the assay buffer; assay type: physicochemical
lipoprotein lipase (LPL) = assay: EnzChek substrate fluorescence assay of LPL activity; assay type: biochemical; details: for increase of LPL activity: over the concentration ranges tested (FIGS. 5A and 5B)
Description: In FIG. 1, background substrate hydrolysis was deducted from each measurement, initial rate was plotted against substrate concentration and each data point is the mean of triplicate determinations.
The effects of components that may be present in biological LPL samples and affect the assay were also evaluated and illustrated in FIG. 5. Addition of heparin and calcium increased LPL activity by about 6% over the concentration ranges tested, shown in FIGS. 5A and 5B, while HIS, added from 0-10% decreased the activity by about 12%, shown in FIG. 5C. Addition of NaCl increased the reaction rate, shown in FIG. 5D, with the highest rate, 46% higher than that without salt, occurring at 0.15 M. As NaCl was increased further, the reaction rate dropped, but even at 2.5 M was not reduced to that without NaCl. This implies that there is no inhibition of LPL activity by NaCl if apoC-II is not used in the assay.
The SpectraMax® M2 plate reader and SoftMax® Pro 5 from MDS Analytical Technologies were used for fluorescent measurements. The optimal wavelength was determined to be […] with a 495 nm filter cutoff. The linear capacity of these instruments is up to 2.4 μmol/well. An assay was performed in a black 96-well plate from Costar® in the presence of 0.15 M NaCl, 20 mM Tris-HCl, and 0.0125% Zwittergent® and 1.5% fatty acid free BSA. A 4× working solution was freshly prepared with 0.6 M NaCl, 80 mM Tris-HCl and 6% fatty acid free BSA. The background hydrolysis rate of the substrate was about 1 pmol/min. In the typical assay, the amount of substrate hydrolyzed was less than about 5% of the available substrate.
Enzymatic parameters were calculated using unquenched the BODIPY-C12 probe, the reaction rate in pmol/min was calculated. The rate of hydrolysis as determined from the continuous increase in fluorescence intensity is equal to the rate of separation of the quencher fatty acid from the substrate. Enzymatic parameters such as Vmax, Km, Kcat, detection limit, Z factors and correlation coefficient were calculated based on the standard definition of those parameters. The data is presented as mean plus standard deviation of three replicates and described below in Example 2 for a comparison of the inventive method and a traditional assay.

human LPL [2] = target: T1, human LPL (Homo sapiens, UniProt P06858); assay: radiolabeled triolein assay of human LPL activity in conditioned media; assay type: biochemical; details: same samples, radiolabeled triolein assay (FIG. 6B)
T1 construct: made in house; host or cells: HEK293 (conditioned medium, not purified)
T1 sequence (P06858 28-475): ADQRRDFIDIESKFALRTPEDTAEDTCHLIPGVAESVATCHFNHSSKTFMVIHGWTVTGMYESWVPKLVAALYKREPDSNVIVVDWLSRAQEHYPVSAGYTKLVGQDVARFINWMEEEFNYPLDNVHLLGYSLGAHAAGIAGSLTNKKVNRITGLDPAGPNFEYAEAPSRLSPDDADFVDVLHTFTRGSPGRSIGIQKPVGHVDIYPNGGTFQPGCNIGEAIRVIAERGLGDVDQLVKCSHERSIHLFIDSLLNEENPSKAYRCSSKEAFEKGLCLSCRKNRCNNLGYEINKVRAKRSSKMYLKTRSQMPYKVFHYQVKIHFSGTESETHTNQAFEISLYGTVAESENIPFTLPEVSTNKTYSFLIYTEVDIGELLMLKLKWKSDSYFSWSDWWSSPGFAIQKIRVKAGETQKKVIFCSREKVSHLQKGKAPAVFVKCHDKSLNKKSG
Text: (§1) Background substrate hydrolysis was deducted from each measurement. LPL activity is expressed as a percentage of the activity measured in the absence of ANGPTL4. The values are the mean +/− standard deviation in triplicate repeats, p<0.05.

human LPL [3] = target: T1, human LPL; assay: EnzChek assay of human LPL activity in conditioned media; assay type: biochemical; details: 25 μL conditioned medium mixed with 25 μL human LPL medium, 30 minutes on ice, 0.62 μM EnzChek substrate, p<0.05 (FIG. 6A)
Description: Conditioned media was generated by transfection in HEK293 cells as is known. Medium obtained from cells expressing from an empty vector was included as a control for the LPL assay. No lipase activity was detected in the control medium. Pre and post-heparin mouse serum was obtained from blood drawn 5 minutes after the injection of 10 units heparin per kg body weight of the mouse.
To determine whether the conditions of the assay are such that the two forms of the enzyme are maintained and can be differentiated by the biological activity of the lipase, two conditioned media were generated containing human LPL and ANGPTL4 respectively.
as §1

Molecule: CCCCCCCCCCCCOCC(COC(=O)CCCC(=O)Oc1ccc2nc3ccc(=O)cc-3oc2c1C)OCCCCCCCCCCCC (racemic) [DGGR substrate, 1,2-o-dilauryl-rac-glycero-3-glutaric acid-(6′-methylresorufin) ester]
- shelf life / precipitation in the assay buffer [1]: precipitated after only one week
- solubility in the assay buffer [1]: limited solubility

Molecule: [Cl-].[Na+] [NaCl]
- reaction rate higher than that without salt (lipoprotein lipase (LPL); highest rate, at 0.15 M (FIG. 5D)): 46%
- inhibition of LPL activity (lipoprotein lipase (LPL); up to 2.5 M, apoC-II not used in the assay): no inhibition

Molecule: [Ca+2] [calcium]
- increase of LPL activity (lipoprotein lipase (LPL)): about 6%

- increase of LPL activity (lipoprotein lipase (LPL)): about 6%
Molecule: heparin [reference compound]

- effect on LPL activity (human LPL [2]): comparable result
- effect on LPL activity (human LPL [3]): inhibited the LPL activity
B1: ANGPTL4 conditioned media: conditioned medium from transfected HEK293 cells containing ANGPTL4, an endogenous inhibitor of LPL (protein, UniProt Q9BY76 26-406, looked up)
Angiopoietin-related protein 4: GPVQSKSPRFASWDEMNVLAHGLLQLGQGLREHAERTRSQLSALERRLSACGSACQGTEGSTDLPLAPESRVDPEVLHSLQTQLKAQNSRIQQLFHKVAQQQRHLEKQHLRIQHLQSQFGLLDHKHLDHEVAKPARRKRLPEMAQPVDPAHNVSRLHRLPRDCQELFQVGERQSGLFEIQPQGSPPFLVNCKMTSDGGWTVIQRRHDGSVDFNRPWEAYKAGFGDPHGEFWLGLEKVHSITGDRNSRLAVQLRDWDGNAELLQFSVHLGGEDTAYSLQLTAPVAGQLGATTVPPSGLSVPFSTWDQDHDLRRDKNCAKSLSGGWWFGTCSHSNLNGQYFRSIPQQRQKLKKGIFWKTWRGRYYPLQATTMLIQPMAAEAAS
modifications: in conditioned medium of transfected HEK293 cells
